We go through 3 molecules from patent US20220193047A1, “METHODS OF ENHANCING RADIOTHERAPY USING FERROPTOSIS INDUCERS AS RADIOSENSITIZERS” (THE TRUSTEES OF COLUMBIA UNIVERSITY IN THE CITY OF NEW YORK, priority 2019, published 2022).

Type in all cases: cell-based
The subject of one assay is SK-LMS-1 cells. Nature of the assay: Clonogenic assay with radiation, SK-LMS-1. The method, then: (§1) 500 cells were seeded per well in 6-well plates in their respective growth media and incubated overnight. The next day, cells were co-treated with DMSO or compounds and radiation using a Gammacell 40 Caesium-137 irradiator (Theratronics). Plates were monitored every day using a light microscope for formation of colonies in the DMSO-treated wells. When colonies of >50 cells are clearly visible, the growth medium was discarded from all plates. The cells were washed with PBS, then fixed and stained with crystal violet solution (0.05% crystal violet, 1% formaldehyde, 1% methanol in PBS). Colonies were then directly visualized and counted.
(§2) The coefficient of drug interaction (CDI), used to compute interaction between two drugs, was used to quantify synergy between cell death inducers and radiation according to the formula CDI=AB/(A×B), where AB is the surviving fraction of the combination treatment, and A and B are the surviving fractions of the individual treatments. […]
(§3) It was then tested whether cell death enhancement of radiation with ferroptosis inducers occurred across diverse tumor cell types. […] In addition to the initial ferroptosis-sensitive HT-1080 sarcoma cell line, glioma and lung cancer cells were evaluated, due to the clinical relevance of radiation therapy for the treatment of these tumor types. […]

The next assay concerns PC9 cells. Nature of the assay: Clonogenic assay with radiation, PC9. On the procedure: as §1, §2, §3
Another assay concerns malondialdehyde (MDA). In words: TBARS assay of MDA levels. As to conditions: HT-1080, 24 h; 1 μM IKE or 10 μM ferrostatin-1, with or without 6 Gy radiation. On the procedure: 2 million cells were seeded in T175 flasks. […] The whole lysate was used to determine MDA concentration in each sample. We used the TBARS assay kit (Cayman Chemical) and followed the product instructions.
Next, levels of malondialdehyde (MDA), a biomarker for lipid peroxidation and ferroptosis, were quantified using an assay that measures thiobarbituric acid reactive substances (TBARS) (Gaschler et al., 2018). In this assay, thiobarbituric acid (TBA) was added to cell lysates and heated under acidic conditions to form the MDA-TBA adduct, which was measured colorimetrically.

Assay [1] has as its system human glioma slice cultures. In words: Human glioma organotypic slice cultures, H2DCFDA ROS by flow cytometry. On the procedure: Human surgical specimens were collected from Columbia University Medical Center operating theaters in accordance with Institutional Review Board protocols. Surgical specimens were deidentified, placed in a sterile 50 mL conical tube containing ice-cold sucrose solution (210 mM sucrose, 10 mM glucose, 2.5 mM KCl, 1.25 mM NaH2PO4, 0.5 mM CaCl2), 7 mM MgCl2 and 26 mM NaHCO3). Tissue specimens were let rest in the sucrose solution for 20 minutes. Tissue specimens were then cut into 300 μm sections using a Mcllwain Tissue Chopper. Sections after cutting were let rest in the sucrose solution for 20 minutes. Then the tissue sections were transferred onto Millicell cell culture inserts ([…], 30 mm diameter) and placed in 6-well plates containing 1.5 mL of media. The media consisted of DMEM/F12 plus N−2 Supplement. […]
To further study the potential of combining small-molecule ferroptosis inducers and radiation for human therapeutic use, ex vivo samples of human glioma, which have been immediately cut from freshly resected tumors and grown as organotypic slice cultures, were used as previously described (Parker et al., 2017). De-identified patient information for these tumor samples are recorded in Table 4. […] Tumor cell viability within slices was not assessed, as the number of tumor cells embedded in each slice cannot be normalized between slices.
In general terms: A flow cytometer gives signals particle by particle.

For a further assay, the system named is A549 cells. In words: Clonogenic assay with radiation, A549. On the procedure: as §1, §2, §3
For assay [2], the system named is lipid species in HT-1080 cells. Nature of the assay: Mass spectrometry-based untargeted lipidomics.
Method: Homogenized samples were transferred to fresh glass tubes containing 850 mL of cold methyl-tertbutyl ether (MTBE) and vortex-mixed for 30 sec. To enhance extraction efficiency of lipids, the samples were incubated for one hour at 4° C. on an orbital shaker. Afterwards, 200 mL of cold water was added to each sample, and incubated for 20 min on ice before centrifugation at 3,000 rpm for 20 min at 4° C. The organic layer was collected followed by drying under a gentle stream of nitrogen gas on ice and stored at −80° C. until UPLC-MS analysis. The protein pellet was used to measure protein concentration for normalization using Bio-Rad protein assay. The samples were re-constituted in a solution containing 2-propanol/acetonitrile/water (4:3:1, v/v/v) containing mixture of internal standard (PLASH® LIPIDOMIX® Mass Spec Standard, Avanti Polar Lipids, INC.) for further UPLC-MS analysis. A quality control (QC) sample was prepared by combining 40 mL of each sample to assess the reproducibility of the features through the runs.
Chromatographic separation of extracted lipids was carried out at 55° C. on ACQUITY UPLC CSH C18 Column, (130 Å, 1.7 μm, 2.1 mm×100 mm) over a 20-min gradient elution. Mobile phase A consisted of ACN/water (60:40, v/v) and mobile phase B was 2-propanol/ACN/water (85:10:5, v/v/v) both containing 10 mM ammonium acetate and 0.1% acetic acid. […]
The subject of the next assay is cleaved caspase-3. Nature of the assay: Western blot of cleaved caspase-3. As to conditions: for Cleaved caspase-3, added to radiation: HT-1080, 6 Gy, 24 h; for Cleavage of caspase-3, compound alone: HT-1080, IKE or RSL3 24 h, staurosporine 500 nM for 6 h. On the procedure:
1 million cells were seeded in 10 cm dishes and treated with compounds and/or radiation on the next day. […] After quantification by Bradford, samples were mixed with 5×SDS loading buffer and separated by SDS-polyacrylamide gel electrophoresis. After transfer, membranes were blocked for 10 min in Tris-buffered saline (pH 7.4) with 1% Tween-20 (TBS-T) with 5% milk and incubated in primary antibody overnight at 4° C. Following 3× for 5 min washes in TBS-T, the membrane was incubated with secondary antibodies for 1 hr. The membrane was washed again in TBST 3× for 5 min prior to visualization using enhanced chemiluminescence (ECL Western Blotting Substrate, Pierce). Antibody for cleaved caspase 3 (Cell Signaling Technology, #9661) was used at 1:1000 and detected using a Peroxidase AffiniPure Goat Anti-Rabbit IgG (H+L) (Jackson ImmunoResearch, 111-295-144) at 1:5000 dilution.
DNA damage is a potent inducer of apoptosis. […] Despite this, some quantity of 17-kDa cleaved caspase-3 was still detectable in the Z-VAD-FMK-treated sample. To further check for potential radiation-induced apoptosis in this model at a later time point, we attempted to rescue the effects of radiation using 100 μM Z-VAD-FMK after 48, 72, and 96 h (FIG. 10).
For orientation: A western blot detects proteins with antibodies after separation by electrophoresis.

A further assay concerns HT-1080 cells. Nature of the assay: Microbeam irradiation and clonogenic assay. Particulars: HT-1080, clonogenic survival.

With `CC(C)Oc1ccc(C(=O)Cn2ccnc2)cc1-n1c(CN2CCN(C(=O)COc3ccc(Cl)cc3)CC2)nc2ccccc2c1=O` [IKE, imidazole ketone erastin], the “Highest observed coefficient of Drug Interaction (CDI) in combination with IR” value (“Highest observed coefficient” below) in the assay on SK-LMS-1 cells was found to be 0.48; with PC9 cells, 0.70; in the assay on A549 cells it was 0.30. In addition, the MDA levels result with malondialdehyde (MDA) is “significantly elevated”. In addition, the “ROS generation (H2DCFDA), combination with radiation vs control” value in assay [1] (10 μM IKE, 2 Gy radiation, 24 hours, three responsive slice cultures) was “significant enhancement of ROS generation”. Also, the “Abundance of 17 lipid species (FA 16:1, lysophospholipids, diacylglycerols)” value is “increased significantly” in assay [2] (HT-1080, 5 μM IKE for 12 h) and “even larger increases” in assay [2] (HT-1080, 5 μM IKE for 12 h plus 6 Gy radiation for 24 h). Further, the “Cleaved caspase-3, added to radiation” value in the assay on cleaved caspase-3 is “did not further increase the amount of cleaved caspase-3”. Moreover, the “Cleavage of caspase-3, compound alone” value in the assay with cleaved caspase-3 is given as “did not induce detectable cleavage of caspase-3”. In the assay with HT-1080 cells, the “Synergy with cytoplasmic microbeam radiation” value is on record as “synergized strongly”.
Consider `COC(=O)c1ccc([C@@H]2c3[nH]c4ccccc4c3C[C@@H](C(=O)OC)N2C(=O)CCl)cc1` [RSL3, Ras Synthetic Lethal 3], for which, in the assay with SK-LMS-1 cells, the “Highest observed coefficient” value worked out at 0.31. In addition, the “Highest observed coefficient” value in the assay with PC9 cells came out at 0.64. In the assay with A549 cells, the “Highest observed coefficient” value was determined as 0.31. In the assay with cleaved caspase-3, the “Cleaved caspase-3, added to radiation” value is on record as “did not further increase the amount of cleaved caspase-3” and the “Cleavage of caspase-3, compound alone” value was “did not induce detectable cleavage of caspase-3”. Further, in the assay with HT-1080 cells, the “Synergy with cytoplasmic microbeam radiation” value is recorded as “synergized strongly” and the “Synergy with nuclear microbeam radiation” value is on record as “no synergy”.
For the molecule `CCOC(=O)c1ccc(NC2CCCCC2)c(N)c1` [ferrostatin-1], the MDA levels result in the assay on malondialdehyde (MDA) is “significantly lower levels of MDA”. In addition, the “ROS accumulation with IKE and radiation, ferrostatin-1 co-treatment” value in assay [1] (10 μM ferrostatin-1) is recorded as “partially suppressible”.
